Among the data in US20220132846A1, “1-PYRIDYL-PYRAZOLYL AMIDE COMPOUNDS AND PREPARATION AND USES THEREOF” (HUNAN RESEARCH INSTITUTE OF CHEMICAL INDUSTRY CO., LTD., priority 2019, published 2022) are mortality and LC50 values, retold here.

Structures are written as SMILES. Bounds are passed on as bounds.

For assay [1], the system named is Armyworm (Mythimna separata (Walker)). As to the kind of experiment: Test against armyworm, Potter tower method. The class given is in vivo. To be noted: Mythimna separata, third-instar larvae, after 72 hours, read-out: Activity (mortality) level against armyworm; for mortality at 12.5 µg/mL: 12.5 mg/L; for mortality at 50 µg/mL: 50 mg/L; for mortality at 500 µg/mL: 500 mg/L. How it is done:
Potter tower method: the test compound was dissolved in an appropriate solvent such as N,N-dimethylformamide, and then diluted with 0.2% aqueous solution of Tween 80 to the desired concentration, Those without the test compounds were set as blank controls. The fresh and tender corn leaves were taken and cut into fragments of basically the same size, then put into a Petri dish (diameter 90 mm) padded with filter paper in advance. Ten third-instar larvae of test insects were transferred into the dish and then placed under the Potter spray tower for being sprayed, each concentration treatment was sprayed at the amount of 1 mL and replicated 3 times. The dish was covered and then placed in a chamber for culture and observed regularly, after 72 hours, the dead insects was investigated and recorded and the mean mortality was calculated. […]

A further assay relates to Aphis fabae. As to the kind of experiment: Test against aphid, leaf dip method (Aphis fabae). It counts as in vivo. To be noted: foliar; for mortality at 12.5 µg/mL: 12.5 mg/L; for mortality at 12.5 µg/mL / mortality at 50 µg/mL / mortality at 200 µg/mL / mortality at 500 µg/mL: after 24 hours, read-out: Activity (mortality) level against Aphis fabae; for mortality at 50 µg/mL: 50 mg/L; for mortality at 200 µg/mL: 200 mg/L; for mortality at 500 µg/mL: 500 mg/L. How it is done: For evaluating the activity of the compounds of this invention against Homoptera pests, Aphis fabae, wheat aphids, etc. were selected as the test insects, and the activity of the compounds of this invention against aphids was measured by leaf dip method indoors.
Leaf dip method (Aphis fabae): the test compound was dissolved in an appropriate solvent such as N,N-dimethylformamide, and then diluted with 0.2% aqueous solution of Tween 80 to the desired concentration, Those without the test compounds were set as blank controls, the treatments were replicated 3 times. Horsebean seedlings with no less than twenty 3-day-old Aphis fabae per plant was cut from the stem, 5 horsebean seedlings with the insects were dipped in the test solution for 5 seconds, then inserted into a sponge filled with water after sucked dry using filter paper, then covered with a glass tube and placed in a chamber for culture. After 24 hours, the number of living and dead insects were investigated and the results were averaged. […]

In the case of `CNC(=O)c1cc(Cl)cc(Br)c1N(C)C(=O)c1cc(Br)nn1-c1ncccc1Cl` [Compound 25, N-[2-bromo-4-chloro-6-[(methylamino)carbonyl]phenyl]-N-methyl-1-(3-chloro-2-pyridinyl)-3-bromo-1H-pyrazole-5-carboxamide], in assay [1], the mortality at 12.5 µg/mL was in the range of 90 to 100%, the mortality at 50 µg/mL lay in the range of 90 to 100% and the mortality at 500 µg/mL was 90 to 100%. Also, in the assay with Aphis fabae, the mortality at 12.5 µg/mL lay in the range of 90 to 100%, the mortality at 50 µg/mL lay in the range of 90 to 100%, the mortality at 200 µg/mL fell in the range of 90 to 100% and the mortality at 500 µg/mL lay in the range of 90 to 100%.

Take `CCNC(=O)c1cc(Cl)cc(Br)c1N(C)C(=O)c1cc(Br)nn1-c1ncccc1Cl` [Compound 26, N-[2-bromo-4-chloro-6-[(ethylamino)carbonyl]phenyl]-N-methyl-1-(3-chloro-2-pyridinyl)-3-bromo-1H-pyrazole-5-carboxamide]: in assay [1], the mortality at 12.5 µg/mL lay in the range of 90 to 100%, the mortality at 50 µg/mL fell in the range of 90 to 100% and the mortality at 500 µg/mL was 90 to 100%. In the assay with Aphis fabae, the mortality at 12.5 µg/mL fell in the range of 90 to 100%, the mortality at 50 µg/mL lay within 90 to 100%, the mortality at 200 µg/mL lay within 90 to 100% and the mortality at 500 µg/mL fell in the range of 90 to 100%.

In the case of `CCCNC(=O)c1cc(Cl)cc(Br)c1N(C)C(=O)c1cc(Br)nn1-c1ncccc1Cl` [Compound 27, N-[2-bromo-4-chloro-6-[(propylamino)carbonyl]phenyl]-N-methyl-1-(3-chloro-2-pyridinyl)-3-bromo-1H-pyrazole-5-carboxamide], in assay [1], the mortality at 50 µg/mL fell in the range of 90 to 100% and the mortality at 500 µg/mL is 90 to 100%. Besides, in the assay on Aphis fabae, the mortality at 12.5 µg/mL is 90 to 100%, the mortality at 50 µg/mL was 90 to 100%, the mortality at 200 µg/mL is 90 to 100% and the mortality at 500 µg/mL was in the range of 90 to 100%.

In the case of `CC(C)NC(=O)c1cc(Cl)cc(Br)c1N(C)C(=O)c1ccnn1-c1ncccc1Cl` [Compound 28, N-[2-bromo-4-chloro-6-[(isopropylamino)carbonyl]phenyl]-N-methyl-1-(3-chloro-2-pyridinyl)-1H-pyrazole-5-carboxamide], in assay [1], the mortality at 12.5 µg/mL is 90 to 100%, the mortality at 50 µg/mL lay within 90 to 100% and the mortality at 500 µg/mL was in the range of 90 to 100%. In addition, in the assay on Aphis fabae, the mortality at 200 µg/mL lay in the range of 90 to 100% and the mortality at 500 µg/mL lay in the range of 90 to 100%.

For the compound `CN(C(=O)c1cc(Br)nn1-c1ncccc1Cl)c1c(Br)cc(Cl)cc1C(=O)NC1CC1` [Compound 29, N-[2-bromo-4-chloro-6-[(cyclopropylamino)carbonyl]phenyl]-N-methyl-1-(3-chloro-2-pyridinyl)-3-bromo-1H-pyrazole-5-carboxamide], in assay [1], the mortality at 12.5 µg/mL lay within 90 to 100%, the mortality at 50 µg/mL fell in the range of 90 to 100% and the mortality at 500 µg/mL is 90 to 100%. In the assay with Aphis fabae, the mortality at 200 µg/mL was 90 to 100% and the mortality at 500 µg/mL lay in the range of 90 to 100%.

Take `CCCCNC(=O)c1cc(Cl)cc(Br)c1N(C)C(=O)c1ccnn1-c1ncccc1Cl` [Compound 30, N-[2-bromo-4-chloro-6-[(butylamino)carbonyl]phenyl]-N-methyl-1-(3-chloro-2-pyridinyl)-1H-pyrazole-5-carboxamide]: the mortality at 500 µg/mL in assay [1] lay within 90 to 100%. For the same compound, in the assay with Aphis fabae, the mortality at 200 µg/mL was 90 to 100% and the mortality at 500 µg/mL is 90 to 100%.

As to `CN(C)C(=O)c1cc(Cl)cc(Br)c1N(C)C(=O)c1cc(Br)nn1-c1ncccc1Cl` [Compound 31, N-[2-bromo-4-chloro-6-[(dimethylamino)carbonyl]phenyl]-N-methyl-1-(3-chloro-2-pyridinyl)-3-bromo-1H-pyrazole-5-carboxamide], the mortality at 500 µg/mL in assay [1] lay within 90 to 100%. Besides, in the assay with Aphis fabae, the mortality at 12.5 µg/mL is 90 to 100%, the mortality at 50 µg/mL lay in the range of 90 to 100%, the mortality at 200 µg/mL lay in the range of 90 to 100% and the mortality at 500 µg/mL lay in the range of 90 to 100%. In the assay on Aphis fabae (further test, read-out: LC50 against Aphis fabae), the LC50 was less than 1 µg/mL.

A word on the mortality: it is the share of the test organisms that died. By LC50 is commonly meant the concentration that kills 50% of the test population.
